{"source": "patent US8481028B2", "about": "“Compositions for preparing a coffee beverage comprising hydrolysed chlorogenic acid” (Nestec S.A., priority 2008, dated 2013)", "key": {"[1]": {"system": "spray-dried preparation of Lactobacillus johnsonii (CNCM I-1225)", "experiment": "Treatment of NESCAFE PROTECT with spray-dried preparation of L. johnsonii, HPLC", "procedure": "(§1) To this solution, 10 mg of a spray-dried preparation of Lactobacillus johnsonii (CNCM I-1225) (3.3 E9 cfu/g) were added. The mixture was then incubated at 37° C. and samples were withdrawn at different reaction times. After centrifugation (3000 g, 5 min) and filtration (0.45 μm pore size syringe filters, Millipore SLHA 025 BS) the samples were analysed by HPLC.\n(§2) Coffee samples were diluted to 1% w/w and analyzed by RP-HPLC on a CC 250/4 Nucleosil 100-5-C18 column (Macherey-Nagel). The eluent system was Millipore water, 0.1% TFA and CH3CN at a flow rate of 1 mL/min. The method allowed the simultaneous determination of caffeoyl quinic acids (CQA), feruloyl quinic acids (FQA), di-caffeoyl quinic acids (diCQA), feruloyl quinic acid-lactones, caffeic acid (CA) and ferulic acid (FA) (absorbance at 325 nm) using external standard calibration curves. Results were expressed relative to the reference at time 0 (t0) or to the reference at the same time without bacteria."}, "[2]": {"system": "Bifidobacterium lactis BB12 (CNCM I-3446)", "experiment": "Treatment of coffee extracts with bacteria cells (B. lactis), HPLC", "procedure": "as §2\n(§3) Tested strains were harvested (centrifugation at 5000 g for 10 min) after having well reached stationary phase, corresponding to 16 hours of incubation in culture medium at 37° C. in anaerobic atmosphere without agitation. For a first activation of the strains, frozen stock cultures were inoculated in fresh media and grown overnight. This pre-culture was used to inoculate the culture.\n(§4) After culture of bacteria and centrifugation, the pellets were resuspended in phosphate buffer (pH 7.0) at a concentration of 0.61 g/ml. To 200 μl of this cells preparation, 800 μl of a coffee solution (3%) was added and the mixture was incubated at 37° C. for 4 h, 16 h and 24 h."}, "[3]": {"system": "Lactobacillus johnsonii (CNCM I-1225)", "experiment": "Treatment of coffee extracts with bacteria cells (L. johnsonii), HPLC", "procedure": "as §2, §3, §4"}, "[4]": {"system": "Chlorogenate esterase", "experiment": "Incubation of coffee extracts with chlorogenate esterase, HPLC", "type": "biochemical, Aspergillus japonicus", "procedure": "as §2\nChlorogenate esterase (24 U/g), derived from Aspergillus japonicus (Kikkoman, Japan). Tannase from Aspergillus oryzae (Kikkoman, Japan) Preparation of Bacteria Cells\nA solution of chlorogenate esterase (25 mg) in 200 μl phosphate buffer (pH 7.0) was added to 800 μl of a coffee solution (3%). The mixture was then incubated at 37° C. for 4 h, 16 h and 24 h. After reaction time, the enzymatic activity was stopped by heat treatment (3 min, 90° C.) and the mixture was filtered before analysis."}, "[5]": {"system": "Lactobacillus johnsonii (CNCM I-1225) extract (lysed cells)", "experiment": "Treatment of NESCAFE PROTECT with L. johnsonii extract (lysed cells), HPLC", "type": "biochemical", "procedure": "Cells of L. johnsonii (CNCM I-1225) were grown (7.0 E08 cfu/ml) and centrifuged (5000 g, 10 min), the pellets were resuspended in phosphate buffer (50 mM, pH 7.0) at a concentration of 0.61 g/ml. The cells were then lysed using the glass-beads method. 600 μl of cells preparation were put in screw-cap tubes and 600 μl of glass-beads were added at 0° C. The tubes were then put into a Mini-Beadbeater for 1 min of intense shaking, cooled in ice, and put another 1 min in the Mini-Beadbeater. […] Samples were withdrawn at different reaction times, centrifuged (3000 g, 5 min), filtered through 0.45 μm pore size syringe filters (Millipore SLHA 025 BS) and analysed by HPLC.\nas §2"}, "[6]": {"system": "Lactobacillus johnsonii (CNCM I-1225) fresh cells", "experiment": "Treatment of NESCAFE PROTECT with L. johnsonii fresh cells, HPLC of chlorogenic and phenolic acids", "procedure": "Cells of L. johnsonii (CNCM I-1225) were grown (7.0 E08 cfu/ml) and centrifuged (5000 g, 10 min), the pellets were resuspended in phosphate buffer (50 mM, pH 7.0) at a concentration of 0.61 g/ml. […] Samples were withdrawn at different reaction times, centrifuged (3000 g, 5 min) and filtered through 0.45 μm pore size syringe filters (Millipore SLHA 025 BS) and analysed by HPLC.\nA reaction control was run in parallel under the same reaction conditions but without bacteria.\nas §2"}, "[7]": {"system": "spray-dried preparation of Lactobacillus johnsonii (CNCM I-1225)", "experiment": "Treatment of green coffee extract with spray-dried preparation of L. johnsonii, HPLC", "procedure": "as §1, with “30 mg of a dried green coffee extract was dissolved in 1 ml phosphate buffer (50 mM, pH 7.0) or in 1 ml water. To” for “To”, “johnsonii” for “johnsonii (CNCM I-1225)”, “cfu/g) was” for “cfu/g) were”\nas §2"}, "[8]": {"system": "concentrated preparation of Lactobacillus johnsonii (CNCM I-1225)", "experiment": "Treatment of NESCAFE with concentrated preparation of L. johnsonii, HPLC", "procedure": "400 mg of NESCAFE SPECIAL FILTRE® (a dried extract of roasted coffee beans) were dissolved in 1 ml of boiling water and the solution was cooled to 37° C. at room temperature. To 250 μl of this coffee solution, different amounts of concentrated preparation of Lactobacillus johnsonii (50 μl, 100 μl, 350 μl, 750 μl) were added and the volume was adjusted to 1 ml with water. The mixtures were than incubated at 37° C. for 2 h and 4 h. After centrifugation (3000 g, 5 min) and filtration the samples were analysed by HPLC.\nas §2"}}}
{"substance": "caffeoyl quinic acids [CQA]", "values": [{"measurement": "% relative to untreated control at t = 0", "setting": "[1]; 2 h", "value": 73, "unit": "%"}, {"measurement": "% relative to untreated control at t = 0", "setting": "[1]; 6 h", "value": 67, "unit": "%"}, {"measurement": "% relative to untreated control at t = 0", "setting": "[1]; 24 h", "value": 32, "unit": "%"}, {"measurement": "% relative to untreated control at t = 0", "setting": "[2]; NESCAFE PROTECT + Bifidobacterium lactis, 4 h", "value": 97, "unit": "%"}, {"measurement": "% relative to untreated control at t = 0", "setting": "[2]; NESCAFE PROTECT + Bifidobacterium lactis, 16 h", "value": 81, "unit": "%"}, {"measurement": "% relative to untreated control at t = 0", "setting": "[2]; NESCAFE PROTECT + Bifidobacterium lactis, 24 h", "value": 80, "unit": "%"}, {"measurement": "% relative to untreated control at t = 0", "setting": "[2]; green coffee extract + Bifidobacterium lactis, 4 h", "value": 96, "unit": "%"}, {"measurement": "% relative to untreated control at t = 0", "setting": "[2]; green coffee extract + Bifidobacterium lactis, 16 h", "value": 79, "unit": "%"}, {"measurement": "% relative to untreated control at t = 0", "setting": "[2]; green coffee extract + Bifidobacterium lactis, 24 h", "value": 74, "unit": "%"}, {"measurement": "% relative to untreated control at t = 0", "setting": "[3]; NESCAFE PROTECT + Lactobacillus johnsonii, 4 h", "value": 33, "unit": "%"}, {"measurement": "% relative to untreated control at t = 0", "setting": "[3]; NESCAFE PROTECT + Lactobacillus johnsonii, 16 h", "value": 13, "unit": "%"}, {"measurement": "% relative to untreated control at t = 0", "setting": "[3]; NESCAFE PROTECT + Lactobacillus johnsonii, 24 h", "value": 13, "unit": "%"}, {"measurement": "% relative to untreated control at t = 0", "setting": "[3]; green coffee extract + Lactobacillus johnsonii, 4 h", "value": 42, "unit": "%"}, {"measurement": "% relative to untreated control at t = 0", "setting": "[3]; green coffee extract + Lactobacillus johnsonii, 16 h", "value": 15, "unit": "%"}, {"measurement": "% relative to untreated control at t = 0", "setting": "[3]; green coffee extract + Lactobacillus johnsonii, 24 h", "value": 12, "unit": "%"}, {"measurement": "% relative to untreated control at t = 0", "setting": "[4]; NESCAFE PROTECT + Chlorogenate esterase, 4 h", "value": 5, "unit": "%"}, {"measurement": "% relative to untreated control at t = 0", "setting": "[4]; NESCAFE PROTECT + Chlorogenate esterase, 16 h", "value": 3, "unit": "%"}, {"measurement": "% relative to untreated control at t = 0", "setting": "[4]; NESCAFE PROTECT + Chlorogenate esterase, 24 h", "value": 3, "unit": "%"}, {"measurement": "% relative to untreated control at t = 0", "setting": "[4]; green coffee extract + Chlorogenate esterase, 4 h", "value": 3, "unit": "%"}, {"measurement": "% relative to untreated control at t = 0", "setting": "[4]; green coffee extract + Chlorogenate esterase, 16 h", "value": 2, "unit": "%"}, {"measurement": "% relative to untreated control at t = 0", "setting": "[4]; green coffee extract + Chlorogenate esterase, 24 h", "value": 2, "unit": "%"}, {"measurement": "Concentration in % relative to untreated reference at t = 0", "setting": "[5]; 2 h, cell preparation 100.0 uL", "value": 32, "unit": "%"}, {"measurement": "Concentration in % relative to untreated reference at t = 0", "setting": "[5]; 2 h, cell preparation 350.0 uL", "value": 10, "unit": "%"}, {"measurement": "Concentration in % relative to untreated reference at t = 0", "setting": "[5]; 6 h, cell preparation 100.0 uL", "value": 14, "unit": "%"}, {"measurement": "Concentration in % relative to untreated reference at t = 0", "setting": "[5]; 6 h, cell preparation 350.0 uL", "value": 6, "unit": "%"}, {"measurement": "Concentration in % relative to untreated reference at t = 0", "setting": "[6]; 6 h, cell preparation 100 uL", "value": 39, "unit": "%"}, {"measurement": "Concentration in % relative to untreated reference at t = 0", "setting": "[6]; 6 h, cell preparation 350 uL", "value": 14, "unit": "%"}, {"measurement": "Concentration in % relative to untreated reference at t = 0", "setting": "[6]; 6 h, cell preparation 750 uL", "value": 3, "unit": "%"}, {"measurement": "Concentration in % relative to untreated reference at t = 0", "setting": "[6]; 24 h, cell preparation 100 uL", "value": 15, "unit": "%"}, {"measurement": "Concentration in % relative to untreated reference at t = 0", "setting": "[6]; 24 h, cell preparation 350 uL", "value": 3, "unit": "%"}, {"measurement": "Concentration in % relative to untreated reference at t = 0", "setting": "[6]; 24 h, cell preparation 750 uL", "value": 0, "unit": "%"}, {"measurement": "% relative to untreated control at t = 0", "setting": "[7]; 4 h", "value": 77, "unit": "%"}, {"measurement": "% relative to untreated control at t = 0", "setting": "[7]; 6 h", "value": 69, "unit": "%"}, {"measurement": "% relative to untreated control at t = 0", "setting": "[7]; 16 h", "value": 58, "unit": "%"}, {"measurement": "% relative to untreated control at t = 0", "setting": "[7]; 24 h", "value": 50, "unit": "%"}, {"measurement": "% relative to untreated control at t = 0", "setting": "[8]; cell amount 50 μL/1 mL, 2 h", "value": 92, "unit": "%"}, {"measurement": "% relative to untreated control at t = 0", "setting": "[8]; cell amount 50 μL/1 mL, 4 h", "value": 76, "unit": "%"}, {"measurement": "% relative to untreated control at t = 0", "setting": "[8]; cell amount 100 μL/1 mL, 2 h", "value": 80, "unit": "%"}, {"measurement": "% relative to untreated control at t = 0", "setting": "[8]; cell amount 100 μL/1 mL, 4 h", "value": 60, "unit": "%"}, {"measurement": "% relative to untreated control at t = 0", "setting": "[8]; cell amount 350 μL/1 mL, 2 h", "value": 46, "unit": "%"}, {"measurement": "% relative to untreated control at t = 0", "setting": "[8]; cell amount 350 μL/1 mL, 4 h", "value": 33, "unit": "%"}, {"measurement": "% relative to untreated control at t = 0", "setting": "[8]; cell amount 750 μL/1 mL, 2 h", "value": 25, "unit": "%"}, {"measurement": "% relative to untreated control at t = 0", "setting": "[8]; cell amount 750 μL/1 mL, 4 h", "value": 17, "unit": "%"}]}
